Series [1] concerns T1, C. trachomatis L2/434/Bu expressing GFP (CTL2-GFP).
T1 construct: L2/434/Bu GFP intracellular growth in HeLa cells
As to the kind of experiment: microbe, parasite or virus in culture. More on the design: C. trachomatis total inclusion area by high-content imaging, normalised to DMSO. The conditions noted are these: Chlamydia trachomatis, HeLa, 28.5 h; read-out: IC50 (µM), total inclusion area. Summed up:
(§1)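 First, bulk GFP and resorufin signals were measured in compound-treated infected cultures. Cells were next fixed and stained with Hoechst. Finally, high-content imaging quantified chlamydial inclusions (area, number) and host nuclei, and MICs were calculated.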

In series [2] the test system is T2, G. vaginalis.
T2 construct: DSM 4944
Put plainly: microbe, parasite or virus in culture. More on the design: Microbial growth in liquid dilution assay, OD600 relative to DMSO control. The conditions noted are these: Gardnerella vaginalis, read-out: G. vaginalis, IC50 (µM) estimate.

Series [3] has as its system T3, L. iners.
T3 construct: DSM 13335
Put plainly: organism not typed. More on the design: Microbial growth in liquid dilution assay, OD600 relative to DMSO control. The conditions noted are these: estimated IC50; read-out: L. iners, IC50 (µM) estimate.

Series [4] has as its system T4, C. albicans.
T4 construct: DSM 1577
As to the kind of experiment: microbe, parasite or virus in culture. More on the design: Microbial growth in liquid dilution assay, OD600 relative to DMSO control. The following applies: Candida albicans, read-out: C. albicans, IC50 (µM) estimate.

In series [5] the test system is T1, C. trachomatis L2/434/Bu expressing GFP (CTL2-GFP). As to the kind of experiment: microbe, parasite or virus in culture. More on the design: C. trachomatis GFP growth in infected HeLa cells, bulk GFP fluorescence normalised to DMSO. The following applies: Chlamydia trachomatis, HeLa, 26 h; read-out: IC50 (µM), bulk GFP fluorescence. The protocol:
(§2) MICs were calculated as described above.

Series [6] has the same test system. Put plainly: microbe, parasite or virus in culture. Details: species or system HeLa; C. trachomatis total inclusion area by high-content imaging, normalised to DMSO. The following applies: Chlamydia trachomatis, 28.5 h; read-out: MIC (µM), total inclusion area. The source says:
We screened a library of 36,785 small molecules displaying drug-like properties and covering a wide chemical space (Fig 1A and S2A Data). In this process, we also complemented the assay described above with an imaging-based readout (Fig 1B). After measurements of bulk GFP and resorufin fluorescence, cells were fixed, stained with the DNA dye Hoechst, and imaged at a high-content imaging platform to detect chlamydial inclusions (GFP) and host cell nuclei (Hoechst). The total area and number of inclusions in individual wells and the number of nuclei then served as additional proxies for chlamydial growth and host cell viability. […] MICs were calculated as described above.

A short description of series [7]: in vitro. The conditions noted are these: human, hela cells; bulk resorufin, mean of 3. Details: Viability of infected HeLa host cells, resazurin conversion, bulk resorufin fluorescence relative to DMSO.
The subject of series [8] is T5, L. crispatus.
T5 construct: DSM 20584
As to the kind of experiment: microbe, parasite or virus in culture. Details: Microbial growth in liquid dilution assay, OD600 relative to DMSO control. The following applies: Lactobacillus crispatus; estimated IC50; read-out: L. crispatus, IC50 (µM) estimate.

The test system of series [9] is T6, B. adolescentis.
T6 construct: DSM 20083
As to the kind of experiment: microbe, parasite or virus in culture. Details: Microbial growth in liquid dilution assay, OD600 relative to DMSO control. The following applies: Bifidobacterium adolescentis; estimated IC50; read-out: B. adolescentis, IC50 (µM) estimate. The essentials: (§3)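 Growth of commensal bacteria was measured in a dilution assay with test compounds at concentrations including 30 µM. In a separate radial diffusion format, bacteria were exposed to compounds for 24–48 h and growth inhibition zones were measured.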

Series [10] deals with T7, L. reuteri.
T7 construct: DSM 20016
Put plainly: microbe, parasite or virus in culture. More on the design: Microbial growth in liquid dilution assay, OD600 relative to DMSO control. The following applies: Limosilactobacillus reuteri; estimated IC50; read-out: L. reuteri, IC50 (µM) estimate. The essentials: as §3

In series [11] the test system is T8, E. coli.
T8 construct: DSM 301
Put plainly: microbe, parasite or virus in culture. The following applies: Escherichia coli; estimated IC50; read-out: E. coli, IC50 (µM) estimate. More on the design: Microbial growth in liquid dilution assay, OD600 relative to DMSO control. The essentials:
as §3

In series [12] the test system is T9, E. faecalis.
T9 construct: DSM 20478
Put plainly: microbe, parasite or virus in culture. Details: Microbial growth in liquid dilution assay, OD600 relative to DMSO control. The conditions noted are these: Enterococcus faecalis; estimated IC50; read-out: E. faecalis, IC50 (µM) estimate. The essentials:
as §3

The subject of series [13] is T10, B. thetaiotaomicron.
T10 construct: DSM 2079
As to the kind of experiment: microbe, parasite or virus in culture. The conditions noted are these: Bacteroides thetaiotaomicron; estimated IC50; read-out: B. thetaiotaomicron, IC50 (µM) estimate. More on the design: Microbial growth in liquid dilution assay, OD600 relative to DMSO control. Summed up:
as §3

Series [14] concerns the target T11, ctFabH (CTL2 FabH), His6(-fMet)SG-ctFabH (Chlamydia trachomatis, UniProt O84242).
T11 construct: synthetic gene, modified pRSF-Duet1, E. coli host; partly acylated (mainly pentanoyl) as purified
T11 sequence (O84242 2-327): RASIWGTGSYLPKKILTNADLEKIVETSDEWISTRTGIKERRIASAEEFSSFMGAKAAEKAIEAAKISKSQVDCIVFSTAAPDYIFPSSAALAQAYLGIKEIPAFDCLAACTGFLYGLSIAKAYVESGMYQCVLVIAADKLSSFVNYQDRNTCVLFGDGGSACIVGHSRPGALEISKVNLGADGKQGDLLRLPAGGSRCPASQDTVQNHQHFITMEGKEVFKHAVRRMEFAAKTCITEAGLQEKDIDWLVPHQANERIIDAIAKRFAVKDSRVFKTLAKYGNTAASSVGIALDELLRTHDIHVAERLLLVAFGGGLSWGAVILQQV
Put plainly: continuous UV assay of acetoacetyl-CoA at […] nm. The following applies: covalent; 20 µM enzyme, 30 µM compound, 100 µM acetyl-CoA, 100 µM malonyl-CoA, pH 8.0, 25 °C, 50 mM MgCl2; with or without CoA preincubation. The series is classed as biochemical.

The test system of series [15] is T1, C. trachomatis L2/434/Bu expressing GFP (CTL2-GFP). Put plainly: microbe, parasite or virus in culture. Details: species or system HeLa; C. trachomatis GFP growth in infected HeLa cells, bulk GFP fluorescence normalised to DMSO. The conditions noted are these: Chlamydia trachomatis, 26 h; read-out: MIC (µM), bulk GFP fluorescence. The protocol:
as §2

Series [16] concerns T12, CTL2-GFP (C. trachomatis L2/434/Bu, GFP-expressing).
T12 construct: L2/434/Bu, GFP-expressing
Put plainly: microbe, parasite or virus in culture. More on the design: C. trachomatis growth in HeLa, dose-response, mean of bulk GFP fluorescence and imaged total inclusion area. The conditions noted are these: Chlamydia trachomatis, HeLa, 28.5 h; mean of GFP and inclusion area. The essentials:
as §1

For series [17], the target named is T13, acyl-modification-free ctFabH (Chlamydia trachomatis, UniProt O84242).
T13 construct: gene fabH
T13 sequence (O84242 2-327): T11 sequence (O84242 2-327)
Put plainly: intact protein LC/MS; MS/MS of tryptic peptides. The series is classed as binding. The following applies: covalent; active site cysteine; 10 µM protein, 50 µM compound, pH 7.0, 10 min to 1 h.

The subject of series [18] is T12, CTL2-GFP (C. trachomatis L2/434/Bu, GFP-expressing). As to the kind of experiment: microbe, parasite or virus in culture. The conditions noted are these: Chlamydia trachomatis, 28.5 h; mean of GFP and inclusion area. More on the design: species or system HeLa; C. trachomatis growth in HeLa, dose-response, mean of bulk GFP fluorescence and imaged total inclusion area. The essentials:
as §1

The target of series [19] is T13, acyl-modification-free ctFabH. As to the kind of experiment: intact protein LC/MS. The conditions noted are these: covalent acyl-enzyme intermediate; 10 µM protein, 50 µM acyl-CoA, pH 7.0. The series is classed as biochemical.

Here are results for two compounds from PMC12040169 (PLOS Biology, 2025).

Structures are written as SMILES. In brackets after ≈: the same amount, converted by molar mass. Read-outs that look alike come from different tables or passages of the source.

`O=C1Oc2nc3ccccc3cc2CN1C1CC1` [c1e]: the IC50 was 0.0199 µM in series [1]; above 30 µM in [2]; above 30 µM in series [3]; above 30 µM in series [4]; 0.0226 µM in series [5]; above 30 µM in series [8]. Besides, the IC50 in [9] was above 30 µM; in series [10], above 30 µM; in series [11] it was above 30 µM; in [12], above 30 µM; in series [13], above 30 µM; in [16] it was 0.0213 µM. The MIC in [6] stood at 0.046 µM (≈ 0.0111 µg/mL); in series [15] it was 0.038 µM (≈ 0.00913 µg/mL); in [18] it was 0.042 µM (≈ 0.0101 µg/mL). Moreover, in [7], the viability at 28.5 h, 0.000416667 µM came out at 95.3%. Moreover, the viability at 28.5 h, 0.00125 µM in series [7] was determined as 82.8%. The viability at 28.5 h, 0.00375 µM in series [7] is 88.7%. For the same compound, in series [7], the viability at 28.5 h, 0.0123333 µM amounted to 87.6%. In addition, the viability at 28.5 h, 0.037 µM in [7] is 93.9%. The viability at 28.5 h, 0.111 µM in series [7] stood at 89.2%. Besides, the viability at 28.5 h, 0.333 µM in series [7] came to 91.7%. In addition, in series [7], the viability at 28.5 h, 1 µM was 89.5%. In series [7], the viability at 28.5 h, 3 µM amounted to 98.2%. The viability at 28.5 h, 10 µM in series [7] was determined as 103%. Besides, in [7], the viability at 28.5 h, 30 µM came out at 46.5%. Further, in [14], the inhibition entry is listed as “c1e displayed inhibitory activity towards ctFabH when added at about equimolar concentration”. Also, in [17], the “intact protein LC/MS; MS/MS of tryptic peptides” value was “incubation with c1e generated an FabH-c1e adduct”.
For `CC[C@H](C)C(=O)SCCNC(=O)CCNC(=O)[C@H](O)C(C)(C)COP(=O)(O)OP(=O)(O)OC[C@H]1O[C@@H](n2cnc3c(N)ncnc32)[C@H](O)[C@@H]1OP(=O)(O)O` [2-methylbutyryl-CoA], in series [19], the “intact protein LC/MS” value was “incubation of this stripped ctFabH with 2-methylbutyryl-CoA or isovaleryl-CoA”.
